Assay results taken from US20260022127A1, “HEXACYCLIC TOPOISOMERASE INHIBITORS HAVING CYTOTOXIC ACTIVITY ON CANCER CELLS” (priority 2022, published 2026).
Read-outs that look alike come from different tables or passages of the source.

System: SKBR-3 cell line (human breast cancer)
Test: 2D-cytotoxicity assay of free payloads (Cell titer glow, 72 hours)
Format: cell-based
Protocol: Protocol: Day 1:5,000 cells/well were plated and incubated at 37° C. overnight, unless otherwise noted.
Day 2: Payload/vehicle control dilutions were made in respective media and added to cells. Volume added: 50 μL to each well. Starting treatment concentration was 0.1 mM for free payloads/10% for vehicle control and then diluted 10-fold down for a total of 11 treatment dilutions. Each concentration was analyzed in triplicates. Media-only wells was used as a control to calculate percent viability.
Day 5: Cell titer glow reagent (volume: 50 μL) was added to each well, the plate was shaken for 5 mins and the luminescence was recorded.
Drug Treatment Time: 72 hours.
Data Analysis: Percent viability was calculated by dividing the luminescence signal obtained for each treated well by the untreated well (media-only control) and multiplying by 100. Data was next transformed using X=Log (x) and then analyzed with nonlinear regression (curve fit), Dose Response inhibition−log (inhibitor) vs response (3 parameters) using PRISM software to determine the IC50 value.

[1] = Homo sapiens, SK-BR-3, SKBR-3, 2000 cells/well, read-out: IC50
[2] = Homo sapiens, SK-BR-3, SKBR-3, 5,000 cells/well, read-out: IC50
[3] = Homo sapiens, SK-BR-3, 72 h, SKBR-3, 5,000 cells/well
[4] = SKBR-3, 5,000 cells/well, read-out: IC50

With CC[C@@]1(O)C(=O)OCc2c1cc1n(c2=O)Cc2c-1nc1cc(F)c(C)c3c1c2[C@H](OCNC(=O)CN)CC3 (single isomer, unassigned) [E-35a*] the IC50 [1] was 28.1 nM.

CC[C@@]1(O)C(=O)OCc2c1cc1n(c2=O)Cc2c-1nc1cc(F)c(C)c3c1c2[C@@H](OCNC(=O)CN)CC3 (single isomer, unassigned) [E-35b*] gave an IC50 [1] of 58.8 nM.

CC[C@@]1(O)C(=O)OCc2c1cc1n(c2=O)Cc2c-1nc1cc(F)c(C)c3c1c2C(O)CC3 (some centres unmarked) [Compound E-1] was tested, and the IC50 [2] was 3.27 nM.

For CC[C@@]1(O)C(=O)OCc2c1cc1n(c2=O)Cc2c-1nc1cc(F)c(C)c3c1c2C(=O)CC3 [Compound E-2], the IC50 (Homo sapiens, SK-BR-3, 72 h, SKBR-3, 5,000 cells/well, payload in ACN:Water) was 27.7 nM and the IC50 (Homo sapiens, SK-BR-3, 72 h, SKBR-3, 5,000 cells/well, payload in DMSO) was 73.2 nM.

In the case of CCC1(O)C(=O)OCc2c1cc1n(c2=O)Cc2c-1nc1cc(F)c(C)c3c1c2CCC3 (centres unmarked) [Compound E-10], the IC50 [3] is reported as 2.7 nM.

Work on CC[C@@]1(O)C(=O)OCc2c1cc1n(c2=O)Cc2c-1nc1cc(F)c(C)c3c1c2CCC3 [Compound E-18] yielded an IC50 [3] of 1.1 nM.

For CC[C@@]1(O)C(=O)OCc2c1cc1n(c2=O)C(O)c2c-1nc1cc(F)c(C)c3c1c2CCC3 (some centres unmarked) [Compound E-19], the IC50 [3] was 75.7 nM.

Compound C=CCC1c2c(nc3cc(F)c(C)c4c3c2CCC4)-c2cc3c(c(=O)n21)COC(=O)[C@]3(O)CC (some centres unmarked) [Compound E-21] has an IC50 [2] of 415 nM.

C#CCOC1c2c(nc3cc(F)c(C)c4c3c2CCC4)-c2cc3c(c(=O)n21)COC(=O)[C@]3(O)CC (some centres unmarked) [Compound E-22] was tested, and the IC50 [2] was 76.3 nM.

Compound C=CCC1(CC=C)c2c(nc3cc(F)c(C)c4c3c2CCC4)-c2cc3c(c(=O)n21)COC(=O)[C@]3(O)CC [Compound E-23] has an IC50 [2] of 3580 nM.

For CC[C@@]1(O)C(=O)OCc2c1cc1n(c2=O)C2(CC=CC2)c2c-1nc1cc(F)c(C)c3c1c2CCC3 [Compound E-24], the IC50 [2] was 517 nM.

Compound CC[C@@]1(O)C(=O)OCc2c1cc1n(c2=O)C(C)(C)c2c-1nc1cc(F)c(C)c3c1c2CCC3 [Compound E-25] has an IC50 [2] of 3040 nM.

Compound CC[C@@]1(O)C(=O)OCc2c1cc1n(c2=O)Cc2c-1nc1cc(F)c(C)c3c1c2C(=NO)CC3 [Compound E-29] has an IC50 [3] of 15.5 nM.

CC[C@@]1(O)C(=O)OCc2c1cc1n(c2=O)Cc2c-1nc1cc(F)c(C)c3c1c2C(OCNC(=O)CN)CC3 (some centres unmarked) [Compound E-35] was tested, and the IC50 [3] was 7.68 nM.

With CC[C@@]1(O)C(=O)OCc2c1cc1n(c2=O)Cc2c-1nc1c(Cl)c(F)c(C)c3c1c2CCC3 [Compound E-38] the IC50 [2] was 35 nM.

For CC[C@@]1(O)C(=O)OCc2c1cc1n(c2=O)Cc2c-1nc1cc(F)c(C)c3c1c2C(OCNC(=O)CNC)CC3 (some centres unmarked) [Compound E-42], the IC50 (Homo sapiens, SK-BR-3, 72 h, SKBR-3, 1000 cells/well) was 12 nM.

In the case of CC[C@@]1(OC(=O)CCCN)C(=O)OCc2c1cc1n(c2=O)Cc2c-1nc1cc(F)c(C)c3c1c2CCC3 [Compound E-43], the IC50 [1] is reported as 32.5 nM.

CC[C@@]1(O)C(=O)OCc2c1cc1n(c2=O)Cc2c-1nc1cc(F)c(C)c3c1c2[C@@H](NC(=O)CO)CC3 [Exatecan Glycolamide, reference compound] gave an IC50 [4] of 5.06 nM.

With Exatecan Mesylate [reference compound] the IC50 [4] was 2.45 nM.
